The source of these data is US8013006B2.

Like-named read-outs stand apart in the source and are kept apart here.

The test system of one data set is HCV replicon. The experiment in a line: microbe, parasite or virus in culture. Type of data set: cell-based.
Setting [1] is: Hepatitis C virus, 48 h, read-out: Replicon IC5Os μM.
Where [2] appears, read: bicistronic HCV replicon, determined by firefly luciferase signal, cells cultured with compound for 2 days, read-out: Replicon IC5Os.

What is called melting point is the temperature of the solid-liquid transition. Compound `CCOc1ccc2c(C#N)c(-c3ccc(N(C)S(C)(=O)=O)cc3)n(C)c2c1` came in with a melting point of 203 to 205 °C.

On to `CCCOC(=O)Nc1ccc(-c2c(C#N)c3ccc(OC(F)F)cc3n2CC2CC2)cc1`, for which the melting point lay in the range of 125 to 126 °C.

Regarding `CCn1c(-c2ccc(NC(=O)COC)cc2)c(C#N)c2ccc(OC(C)C)cc21`, the melting point is 169 to 173 °C.

`CCn1c(-c2ccc3c(c2)OCO3)c(C#N)c2ccc(OC)cc21` [Compound 22] yielded a melting point of 146 to 149 °C. Also, the IC50 in the data set with HCV replicon (setting [1]) is 0.5 to 2 µM.

As to `CCn1c(NC(=O)c2cccc(C)c2)c(C#N)c2ccc(OC)cc21` [Compound 23], the melting point lay within 234 to 235 °C. Besides, the IC50 in the data set with HCV replicon (setting [1]) was less than 0.5 µM.

In the case of `CCn1c(NC(C)=O)c(C#N)c2ccc([N+](=O)[O-])cc21` [Compound 25, N-(3-cyano-1-ethyl-6-nitro-1H-indol-2-yl)acetamide], the melting point is 291 to 293 °C. Also, the IC50 in the data set with HCV replicon (setting [1]) was more than 2 µM.

In turn, `COc1ccc(-n2cc(C(C)=O)c3ccc(OC)cc32)cc1` [Compound 48] yielded a melting point of 138 to 142 °C. The IC50 with HCV replicon (setting [1]) was 0.5 to 2 µM.

In turn, `CCn1c(C#Cc2ccc(N)cc2)c(C#N)c2ccc(OC)cc21` [Compound 69] yielded a melting point of 163 to 166 °C. Further, the IC50 in the data set on HCV replicon (setting [1]) fell in the range of 0.5 to 2 µM.

Regarding `CCn1c(-c2ccc(NC(=O)C3CC3)cc2)c(C#N)c2ccc(OC)cc21` [Compound 81], the melting point lay within 209 to 211 °C. In the data set on HCV replicon (setting [1]), the IC50 was less than 0.5 µM.

Take `CCC(=O)Nc1ccc(C#Cc2c(C#N)c3ccc(OC)cc3n2CC)cc1` [Compound 82]: the melting point was 223 to 228 °C. In addition, the IC50 in the data set with HCV replicon (setting [1]) was 0.5 to 2 µM.

Compound `CCCn1c(-c2ccc(NS(=O)(=O)CC)cc2)c(C#N)c2ccc(OC)cc21` [Compound 85] had a melting point of 163 to 165 °C. Also, the IC50 in the data set on HCV replicon (setting [1]) is less than 0.5 µM.

For `CCS(=O)(=O)Nc1ccc(-c2c(C#N)c3ccc(OC)cc3n2C2CCC2)cc1` [Compound 86], the melting point was in the range of 158 to 160 °C. Besides, in the data set on HCV replicon (setting [1]), the IC50 is less than 0.5 µM.

Turning to `CCn1c(-c2ccc(NS(=O)(=O)C(C)C)cc2)c(C#N)c2ccc(OC)cc21` [Compound 88], the melting point was in the range of 209 to 213 °C. The IC50 with HCV replicon (setting [1]) is 0.5 to 2 µM.

For the compound `CCn1c(C#Cc2ccccc2)c(C#N)c2ccc(C(N)=O)cc21` [Compound 94], the melting point was in the range of 262 to 265 °C. Besides, the IC50 with HCV replicon (setting [1]) lay within 0.5 to 2 µM.

`CCn1c(C#Cc2cccc(OC)c2)c(C#N)c2ccc(C(N)=O)cc21` [Compound 95] yielded a melting point of 248 to 251 °C. The IC50 in the data set with HCV replicon (setting [1]) fell in the range of 0.5 to 2 µM.

In the case of `CCn1c(C#Cc2ccc(N)cc2)c(C#N)c2ccc(C(N)=O)cc21` [Compound 96], the melting point fell in the range of 243 to 250 °C. The IC50 with HCV replicon (setting [1]) is 0.5 to 2 µM.

The compound `COc1ccc(-n2cc(C#N)c3ccc(Cl)cc32)cc1` [Compound 119] came in with a melting point of 126 to 128 °C. The IC50 in the data set with HCV replicon (setting [1]) is 0.5 to 2 µM.

`CCn1c(C#Cc2ccc(NS(=O)(=O)CC)cc2)c(C#N)c2ccc(OC)cc21` [Compound 131] had a melting point of 199 to 204 °C. Further, the IC50 in the data set on HCV replicon (setting [1]) lay within 0.5 to 2 µM.

The compound `CCn1c(C#Cc2ccc(NS(=O)(=O)C(C)C)cc2)c(C#N)c2ccc(OC)cc21` [Compound 132] showed a melting point of 209 to 212 °C. Moreover, the IC50 in the data set on HCV replicon (setting [1]) was 0.5 to 2 µM.

On to `CCn1c(C#Cc2ccccc2Cl)c(C#N)c2ccc(OC)cc21` [Compound 134], for which the melting point lay within 155 to 157 °C. Besides, the IC50 with HCV replicon (setting [1]) is 0.5 to 2 µM.

As to `CCn1c(C#Cc2ccc(NC(=O)COC)cc2)c(C#N)c2ccc(OC)cc21` [Compound 139], the melting point fell in the range of 191 to 195 °C. Further, the IC50 with HCV replicon (setting [1]) lay within 0.5 to 2 µM.

`CCn1c(C#Cc2cccc(C)c2)c(C#N)c2ccc(OC)cc21` [Compound 144] showed a melting point of 97 to 100 °C. In addition, in the data set on HCV replicon (setting [1]), the IC50 was 0.5 to 2 µM.

As for `CCn1c(C#Cc2ccc(C(C)(C)C)cc2)c(C#N)c2ccc(OC)cc21` [Compound 145], the melting point lay within 110 to 113 °C. Further, the IC50 in the data set with HCV replicon (setting [1]) is 0.5 to 2 µM.

Regarding `CCn1c(C#Cc2ccc(NC(=O)C3CCC3)cc2)c(C#N)c2ccc(OC)cc21` [Compound 153], the melting point was 225 to 228 °C. Moreover, the IC50 in the data set on HCV replicon (setting [1]) is 0.5 to 2 µM.

In turn, `CCn1c(C#Cc2ccc(CNS(=O)(=O)CC)cc2)c(C#N)c2ccc(OC)cc21` [Compound 157, Ethanesulfonic acid [4-(3-cyano-1-ethyl-6-methoxy-1H-indol-2-ylethynyl)-phenyl]methyl amide] had a melting point of 149 to 153 °C.

As for `CCn1c(C#Cc2ccc(CC#N)cc2)c(C#N)c2ccc(OC)cc21` [Compound 161], the melting point lay in the range of 174 to 176 °C. The IC50 with HCV replicon (setting [1]) was 0.5 to 2 µM.

With `CCn1c(C#Cc2ccc(O)cc2)c(C#N)c2ccc(OC)cc21` [Compound 172], the melting point is 221 to 223 °C. For the same compound, in the data set on HCV replicon (setting [1]), the IC50 was 0.5 to 2 µM.

As to `CCn1c(C#Cc2cccc(N)c2)c(C#N)c2ccc(OC)cc21` [Compound 173], the melting point lay in the range of 150 to 153 °C. For the same compound, the IC50 with HCV replicon (setting [1]) lay within 0.5 to 2 µM.

On to `CCn1c(C#Cc2ccc3c(c2)OCCO3)c(C#N)c2ccc(OC)cc21` [Compound 175], for which the melting point fell in the range of 132 to 135 °C. The IC50 in the data set with HCV replicon (setting [1]) was in the range of 0.5 to 2 µM.

`CCn1c(-c2ccc(CNS(=O)(=O)CCN3CCOCC3)cc2)c(C#N)c2ccc(OC)cc21` [Compound 668, 2-morpholin-4-yl-ethanesulfonic acid [4-(3-cyano-1-ethyl-6-methoxy-1H-indol-2-yl)-phenyl]methyl amide] gave a melting point of 171 to 174 °C.

With `CCCn1c(-c2ccc(NC(=O)OC)cc2)c(C#N)c2ccc(OC)cc21` [Compound 849], the IC50 in the data set on HCV replicon (setting [2]) lay in the range of 0.5 to 2 µM.

For `CCCn1c(-c2ccc(N(CC)S(=O)(=O)CC)cc2)c(C#N)c2ccc(OC)cc21` [Compound 852], the IC50 with HCV replicon (setting [2]) lay within 0.5 to 2 µM.

As to `CCn1c(-c2ccc(C(=O)N3CC3)cc2)c(C#N)c2ccc(OC)cc21` [Compound 853], the IC50 in the data set on HCV replicon (setting [2]) was less than 0.5 µM.

`CCn1c(-c2ccc(NC(=O)C3CC3)cc2)c(C#N)c2ccccc21` [Compound 854]: the IC50 with HCV replicon (setting [1]) lay in the range of 0.5 to 2 µM.

Take `CCn1c(-c2ccc(NC(=O)C(C)C)cc2)c(C#N)c2ccccc21` [Compound 855]: in the data set with HCV replicon (setting [1]), the IC50 fell in the range of 0.5 to 2 µM.

As for `CCn1c(-c2ccc(NC(=O)CCl)cc2)c(C#N)c2cc(OC)ccc21` [Compound 856], the IC50 in the data set on HCV replicon (setting [2]) was more than 2 µM.

Take `CCn1c(-c2ccc(NC(=O)COC)cc2)c(C#N)c2cc(OC)ccc21` [Compound 857]: the IC50 with HCV replicon (setting [2]) fell in the range of 0.5 to 2 µM.

As for `CCn1c(-c2ccc(NC(=O)C(C)C)cc2)c(C#N)c2cc(OC)ccc21` [Compound 858], the IC50 with HCV replicon (setting [1]) was less than 0.5 µM.

Turning to `CCn1c(-c2ccc(C(=O)NC)cc2)c(C#N)c2cc(OC)ccc21` [Compound 860], the IC50 with HCV replicon (setting [2]) lay within 0.5 to 2 µM.

In the case of `CCn1c(-c2ccc(C(=O)N3CC3)cc2)c(C#N)c2cc(OC)ccc21` [Compound 861], in the data set on HCV replicon (setting [1]), the IC50 fell in the range of 0.5 to 2 µM.

As for `CCn1c(-c2ccc(C(=O)N3CCC3)cc2)c(C#N)c2cc(OC)ccc21` [Compound 862], the IC50 with HCV replicon (setting [2]) was more than 2 µM.

In the case of `CCn1c(-c2ccc(N3CCOC3=O)cc2)c(C#N)c2ccc(OC)cc21` [Compound 863], the IC50 in the data set on HCV replicon (setting [1]) is 0.5 to 2 µM.

As to `CCn1c(-c2cccc(N3CCOC3=O)c2)c(C#N)c2ccc(OC)cc21` [Compound 864], the IC50 in the data set on HCV replicon (setting [2]) lay within 0.5 to 2 µM.

With `CCCn1c(-c2ccc(N3CCCS3(=O)=O)cc2)c(C=O)c2ccc(OC)cc21` [Compound 865], the IC50 in the data set on HCV replicon (setting [2]) is more than 2 µM.
